US4737504A, “5-fluoro-and 8-fluoro-trimetoquinol compounds and the processes for their preparation” (priority 1986, dated 1988)
Read-outs that look alike come from different tables or passages of the source.

Columns and labels:
adrenergic receptors = settings: background; cited from earlier work
[1] = molecular target: T1, U46619-induced contractions of rat thoracic aorta (Rattus norvegicus, UniProt P34978); assay: antagonism of U46619-induced contractions of rat thoracic aorta; type: cell-based, rat (male Sprague-Dawley); settings: no analog (None); n = 16; read-out: pD2 of U46619 (control) (converted)
T1 construct: A 2-3 cm segment of thoracic aorta was excised; tissue Harlan Industries, Inc., Cumberland, IN (animals); host or cells: rat thoracic aorta, spirally cut strips
T1 sequence (P34978 1-341): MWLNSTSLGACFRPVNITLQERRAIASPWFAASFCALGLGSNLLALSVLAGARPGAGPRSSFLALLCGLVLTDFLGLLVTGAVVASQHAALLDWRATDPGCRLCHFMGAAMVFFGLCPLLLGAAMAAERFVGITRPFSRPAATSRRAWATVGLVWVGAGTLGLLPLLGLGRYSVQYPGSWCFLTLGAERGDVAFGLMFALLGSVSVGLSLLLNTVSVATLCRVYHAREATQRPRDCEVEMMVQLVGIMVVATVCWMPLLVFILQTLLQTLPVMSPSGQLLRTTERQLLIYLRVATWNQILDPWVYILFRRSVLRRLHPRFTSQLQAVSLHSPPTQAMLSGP
Protocol: The vasoconstrictive activity of U46619 (a stable thromboxane A2 agonist) on thoracic aorta tissue was determined as follows: Male Sprague-Dawley rats (Harlan Industries, Inc., Cumberland, IN) weighing between 250 and 350 gm were stunned and killed by cervical dislocation. A 2-3 cm segment of thoracic aorta was excised, cleaned of any adhering fat and connecting tissue, spirally cut into 2 matched strips, Constantine, supra. (2.0×0.3 cm). Strips were mounted in 10 ml tissue baths filled with the physiological salt solution in which 3×10^-6 M indomethaecin was present. A tension of 1 gm was applied to the strips. Responses of the tissues to drugs were monitored via Grass FT-03 isometric force transducers connected to a Grass Model 7C polygraph (Grass Instruments Co., Quincy, MA).
Some experiments were done in the absence of indomethacin. Concentration-dependent responses to U46619 were constructed in each preparation as described by Van Rossum, supra.
Effective concentration-50 (EC50) values of the agonists were determined graphically from individual plots of percent response versus log concentration. The potency of each agonist was expressed as a pD2 value where pD2 is equal to the negative logarithm of the experimentally determined EC50 value.
Antagonists were quantitated by calculating their pKB or pA2 values according to the methods of Furchgott, Ann. N.Y. Acad. Sci., 139: 553-570 (1967) and Arunlakshana et al., Br. J. Pharmacol., 14: 48-58 (1959). The pKB value is equivalent to the -log of [I]/(CR-1), where pKB is the negative logarithm of the apparent dissociation constant of the antagonist (KB), [I] is the concentration of the antagonist, and CR is the concentration ratio of the agonist EC50 in the presence of antagonist to the agonist EC50 in the absence of antagonist. To determine significant differences between pD2, pKB or pA2 values, a 5% level of significance was used. Arunlakshana plots were analyzed by computer according to the method of Tallarida et al., Manual of Pharmacological Calculations With Computer Programs, 29-31, (1981).

[2] = molecular target: T2, β1-adrenoceptors (guinea pig atria) (Cavia porcellus, UniProt H0W3H1); assay: chronotropic response of spontaneously beating guinea pig right atria (β1-adrenergic activity); type: cell-based, guinea pig (male albino Hartley); settings: read-out: IAR ± SEM (intrinsic activity ratio)
T2 construct: the atria and trachea were quickly removed by standard procedures; tissue Glenn Carr, Columbus, OH (animals); host or cells: guinea pig right atria, spontaneously beating
Protocol: (§1) The β2 /β1 -adrenergic activity was determined using the following procedure: Male albino Hartley guinea pigs were employed in all experiments. The isolation and procedures for testing of each compound (10^-9 to 3×10^-5 M) with isolated guinea pig atria and trachea were identical with those described by Sober et al., J. Med. Chem., 24: 970, 1981.
Male guinea pigs (Hartley strain, Glenn Carr, Columbus, OH) weighing between 400 and 700 grams were reserpinized (5 mg/kg, i.p.) 12-16 hours before experiments. Animals were sacrificed by a sharp blow to the head and the atria and trachea were quickly removed by standard procedures (The Staff, University of Edinburgh, "Pharmacological Experiments on Isolated Preparation", Livingston, London, pp. 104-111, 1970). Trachea were spirally cut into 2 to 4 matched strips (Constantine, J. Pharm. Pharmac., 17: 34-35, 1965). […]
(§2) Each drug concentration was added only after the effects of the previous concentration reached a maximum and remained constant. […] Responses for agonists were expressed as pD2 values (-log EC50) values and were calculated directly from graphical plots of % maximal response versus log molar drug concentration.

[3] = tested on: human platelets (epinephrine-induced serotonin secretion); assay: inhibition of epinephrine-induced serotonin secretion, human platelet-rich plasma; type: cell-based
Protocol: (§3) The antiaggregatory and antisecretory activity on human platelets was determined by evaluating the in vitro aggregation and [^14 C]serotonin secretion in human platelet preparations. Blood was taken by venipuncture from normal human volunteers who were reported to be free of medication for at least 10 days before blood drawing. Venous blood samples were mixed with acid-citrate dextrose solution (9:1) and centrifuged at 120×g for 15 minutes at room temperature to obtain platelet-rich plasma, PRP, (Huzoor-Akbar et al., Biochem. Pharmacol., 30: 2013-2020, 1981). The PRP was transferred to polypropylene tubes and stored under an atmosphere of 8% CO2. The remaining blood was centrifuged at 1000×g for 10 minutes to obtain platelet-poor plasma. […] Platelet counts varied between 280,000 to 320,000 per cmm or were adjusted to 300,000 per cmm for the aggregation and secretion experiments. All studies were conducted within 2 hours after PRP recovery.
(§4) For aggregation studies, 0.5 ml of PRP was incubated with drug or vehicle (1-5 μl) for 1 minute at 37° C. before the initiation of aggregation with inducers. […] In all experiments, the minimum concentration of inducer (adenosine diphosphate ADP; epinephrine, E; 15S-hydroxy-11α,9α-epoxymethanoprosta-5Z,13E-dienoic acid, U46619; collagen; and arachidonic acid, AA) which caused maximal irreversible aggregation within each PRP preparation was used. Aggregation was monitored for 4 to 6 minutes after the addition of an inducer and data were presented as a percentage inhibition of either slope or maximal light transmittance changes in the presence of varying drug concentrations.
(§5) Secretion data were calculated as the net increase of serotonin released into the supernatant by each inducer and expressed as a percentage of the total radioactivity in platelets Mayo et al., Biochem. Pharmacol., 30: 2237-2241, 1981. The effect of compounds on serotonin release was expressed as the percentage of inhibition of the maximum release by each inducer and plotted against the log molar concentrations of each agent.

human platelets [4] = settings: in vitro, background; cited from earlier work
[5] = tested on: human platelets (U46619-induced aggregation); assay: inhibition of U46619-induced platelet aggregation in presence of aspirin, human platelet-rich plasma; type: cell-based
Protocol: as §3, §4

[6] = molecular target: T3, β2-adrenoceptors (guinea pig trachea) (Cavia porcellus, UniProt Q8K4Z4); assay: relaxation of carbachol-contracted guinea pig tracheal strips (β2-adrenergic activity); type: cell-based, guinea pig (male albino Hartley)
T3 construct: the atria and trachea were quickly removed by standard procedures; tissue Glenn Carr, Columbus, OH (animals); host or cells: guinea pig trachea, spirally cut strips
Protocol: as §1
Male guinea pigs (Hartley strain, Glenn Carr, Columbus, OH) weighing between 400 and 700 grams were reserpinized (5 mg/kg, i.p.) 12-16 hours before experiments. Animals were sacrificed by a sharp blow to the head and the atria and trachea were quickly removed by standard procedures (The Staff, University of Edinburgh, "Pharmacological Experiments on Isolated Preparation", Livingston, London, pp. 104-111, 1970). Trachea were spirally cut into 2 to 4 matched strips (Constantine, J. Pharm. Pharmac., 17: 34-35, 1965). Spontaneously beating atria and tracheal strips were mounted in 10 ml tissue baths filled with Krebs-Heinsleit solution (millimolar concentrations: NaCl, 118; KCl, 4.7; CaCl2 -2H2 O, 2.5; MgCl2 -6H2 O, 5.0; NaH2 PO4 H2 O, 1.0; NaHCO3, […]; and dextrose, 11) warmed to 37° C. and bubbled with 95% O2 :5% CO2. Tensions of 1 and 3 gm were applied to the atria and trachea, respectively.
Following a minimum 1 hour equilibration period, a concentration of 3×10^-7 M carbachol was administered to the strips.
as §2

[7] = phenol acidities (pKa) determined spectrophotometrically; type: physicochemical; settings: phenol; tris(hydroxymethyl)aminomethane buffer; UV
Protocol: Phenol acidities (pKa) were determined spectrophotometrically, as described by Albert et al., "The determination of Ionization Constants" 3rd Ed., Chapman and Hall, London and New York, 1984, by measuring the absorption as a function of pH in tris(hydroxymethyl)aminomethane buffer. Since the catechols tended to oxidize in basic media the buffers were degassed and flushed with argon prior to use.

human platelets [8] = assay: human platelet aggregation and serotonin release, inducers taken together; type: cell-based; settings: each inducer
Protocol: as §3, §4, §5

[9] = tested on: human platelets (epinephrine-induced aggregation); assay: inhibition of the secondary phase of epinephrine-induced platelet aggregation, human platelet-rich plasma; type: cell-based
Protocol: as §3, §4

[10] = tested on: human platelets (U46619-induced serotonin secretion); assay: inhibition of U46619-induced serotonin secretion in presence of aspirin, human platelet-rich plasma; type: cell-based
Protocol: as §3, §4, §5

[11] = tested on: human platelets (arachidonic acid-induced serotonin secretion); assay: inhibition of arachidonic acid-induced serotonin secretion, human platelet-rich plasma; type: cell-based
Protocol: as §3, §4, §5

[12] = tested on: human platelets (arachidonic acid-induced aggregation); assay: inhibition of arachidonic acid-induced platelet aggregation, human platelet-rich plasma; type: cell-based
Protocol: as §3, §4

[13] = tested on: human platelets (ADP-induced aggregation); assay: inhibition of the secondary phase of ADP-induced platelet aggregation, human platelet-rich plasma; type: cell-based
Protocol: as §3, §4

[14] = tested on: human platelets (ADP-induced serotonin secretion); assay: inhibition of ADP-induced serotonin secretion, human platelet-rich plasma; type: cell-based
Protocol: as §3, §4, §5

[15] = background; cited from earlier work
[16] = tested on: human platelets (collagen-induced aggregation); assay: inhibition of collagen-induced platelet aggregation, human platelet-rich plasma; type: cell-based
Protocol: as §3, §4

[17] = tested on: human platelets (collagen-induced serotonin secretion); assay: inhibition of collagen-induced serotonin secretion, human platelet-rich plasma; type: cell-based
Protocol: as §3, §4, §5

[18] = cited from earlier work
[19] = read-out: IC50 serotonin secretion
[20] = read-out: pIC50 serotonin secretion (converted)
[21] = read-out: IC50 platelet aggregation
[22] = read-out: pIC50 platelet aggregation (converted)
[23] = read-out: IC50 platelet aggregation (secondary phase)
[24] = read-out: pIC50 platelet aggregation (secondary phase) (converted)

T3 sequence (Q8K4Z4 whole entry): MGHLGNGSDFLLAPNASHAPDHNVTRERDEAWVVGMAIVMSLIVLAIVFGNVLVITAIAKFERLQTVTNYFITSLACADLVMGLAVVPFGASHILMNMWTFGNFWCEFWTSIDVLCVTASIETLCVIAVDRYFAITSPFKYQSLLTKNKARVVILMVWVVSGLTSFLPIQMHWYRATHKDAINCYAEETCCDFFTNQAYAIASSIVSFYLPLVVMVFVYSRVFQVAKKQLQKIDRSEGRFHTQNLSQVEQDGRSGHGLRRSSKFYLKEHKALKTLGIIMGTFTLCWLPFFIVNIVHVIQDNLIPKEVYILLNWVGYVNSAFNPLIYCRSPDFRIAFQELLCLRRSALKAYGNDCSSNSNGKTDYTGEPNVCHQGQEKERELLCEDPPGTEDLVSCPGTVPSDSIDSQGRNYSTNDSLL
T2 sequence (H0W3H1 1-470): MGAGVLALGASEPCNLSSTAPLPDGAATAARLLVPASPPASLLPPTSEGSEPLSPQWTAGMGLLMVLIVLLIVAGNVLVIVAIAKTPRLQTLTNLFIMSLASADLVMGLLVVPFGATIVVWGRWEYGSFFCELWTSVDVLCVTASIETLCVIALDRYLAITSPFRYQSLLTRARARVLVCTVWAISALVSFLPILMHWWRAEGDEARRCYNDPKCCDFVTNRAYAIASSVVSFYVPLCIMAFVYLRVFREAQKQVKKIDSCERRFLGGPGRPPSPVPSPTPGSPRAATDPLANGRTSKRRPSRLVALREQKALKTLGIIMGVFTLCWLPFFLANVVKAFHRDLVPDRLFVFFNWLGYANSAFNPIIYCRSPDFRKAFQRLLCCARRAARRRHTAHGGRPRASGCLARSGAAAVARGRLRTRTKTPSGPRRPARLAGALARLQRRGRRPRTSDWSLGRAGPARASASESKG

## NCC(O)c1ccc(O)c(O)c1F (stereo not shown)
Adrenergic receptors
  adrenergic receptor activity/selectivity: selective β-adrenergic agonist

## NCCc1ccc(O)c(O)c1F [2-fluoro-dopamine]
Adrenergic receptors
  adrenergic receptor activity/selectivity: do not show selectivity for adrenergic receptors

## NCC(O)c1cc(O)c(O)cc1F (stereo not shown) [6-fluoro analog of norepinephrine]
Adrenergic receptors
  adrenergic receptor activity/selectivity: selective β-adrenergic agonist

## NCCc1cc(O)c(O)cc1F [6-fluoro-dopamine]
Adrenergic receptors
  adrenergic receptor activity/selectivity: do not show selectivity for adrenergic receptors

## CCCCC[C@H](O)/C=C/[C@@H]1[C@@H](C/C=C\CCCC(=O)O)[C@H]2CO[C@@H]1C2 [Compound U46619, 15S-hydroxy-11α,9α-epoxymethanoprosta-5Z,13E-dienoic acid, reference compound]
[1]
  EC50: 6.76 nM

## CNC[C@H](O)c1ccc(O)c(O)c1 [R-(-)-epinephrine]
Adrenergic receptors
  adrenergic receptor activity/selectivity: more active than S-(+)-epinephrine on both α- and β-adrenergic receptors

## COc1cc(CC2NCCc3cc(O)c(O)cc32)cc(OC)c1OC (stereo not shown) [TMQ, trimetoquinol]
[2]
  Emax: 100%
[3]; [19]
  IC50: 1150 nM
[3]; [20]
  IC50: 1020 nM
Human platelets [4]
  effect on arachidonic acid-mediated platelet aggregation: blocks endoperoxide/thromboxane arachidonic acid-mediated in vitro aggregation of human platelets
[5]; [21]
  IC50: 440 nM
[5]; [22]
  IC50: 437 nM
[6]
  EC50: 57.5 nM
  agonist activity on tracheal relaxation: nearly equally active as an agonist on tracheal relaxation
[6]; guinea pig, read-out: IAR ± SEM (intrinsic activity ratio)
  Emax: 95 ± 1%
[7]
  pKa: 8.77 ± 0.15
Human platelets [8]
  inhibition of aggregation and serotonin release: inhibitors of aggregation and serotonin release by each inducer
[9]; [23]
  IC50: 1730 nM
[9]; [24]
  IC50: 1660 nM
[10]; [19]
  IC50: 720 nM
[10]; [20]
  IC50: 692 nM
[11]; [19]
  IC50: 1330 nM
[11]; [20]
  IC50: 1260 nM
[12]; [21]
  IC50: 1040 nM
[12]; [22]
  IC50: 1050 nM
[13]; [23]
  IC50: 340 nM
[13]; [24]
  IC50: 269 nM
[14]; [19]
  IC50: 230 nM
[14]; [20]
  IC50: 200 nM
[15]
  side effects: undesirable effect of also increasing the β1 -adrenergic activity which stimulates the heart
[16]; [21]
  IC50: 930 nM
[16]; [22]
  IC50: 933 nM
[17]; [19]
  IC50: 620 nM
[17]; [20]
  IC50: 589 nM

## CNC[C@H](O)c1ccc(O)c(O)c1 [epinephrine]
[15]
  side effects: tachycardia, elevated blood pressure, headache, and tremors
Adrenergic receptors
  adrenergic receptor activity/selectivity: stimulates both α- and β-adrenergic receptors to about the same degree

## CC(C)NCC(O)c1ccc(O)c(O)c1 (stereo not shown) [isoproterenol]
[18]; averaging
  duration of action: 1.5 to 2 h
[18]; bronchodilator, inhalation
  onset of action: 2 to 5 min
[15]
  side effects: undesirable tachycardia, increase in cardiac output and an elevation in blood pressure
Adrenergic receptors
  adrenergic receptor activity/selectivity: possesses little tissue selectivity and stimulates both β1 - and β2 -adrenergic receptors
